Assay results from PubChem BioAssay (NCI).
Values joined by “and” are separate entries in the source; they are usually repeats but may differ in a detail not shown here. Equal entries are not always repeated.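 How tested: cells in 96-well plates exposed to compound for 48 hours at five concentrations. At the GI50, growth is halved. TGI marks complete inhibition of growth.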

Tested on: SR leukemia
Assay: NCI-60 cell line screen, 48 h

Question: For `O=C(Nc1ccc(Cl)cc1)c1cc(-c2ccc(F)cc2)c2sc(=O)[nH]c2n1`, which GI50 is on record?
Answer: 0.672 µM

Question: And the TGI?
Answer: 10.5 µM

Question: Which results are given for `Cc1cn2c(/C=C3/C(=O)N(C)c4ccccc43)c(C)nc2s1`?
Answer: GI50: 2.48 µM; TGI: 7.37 µM

Question: How did the TGI turn out when `CCOC(=O)NC(=O)c1cn(CCOCCOC(=O)NCCCCCCNC(=O)OCCOCCn2cc(C(=O)NC(=O)OCC)c(=O)[nH]c2=O)c(=O)[nH]c1=O` was run?
Answer: > 100 µM

Question: Which GI50 does the source give for `Cc1ccc(C(=NN=C(N)N)c2ccc(C)cc2)cc1` here?
Answer: 0.235 µM

Question: And the TGI?
Answer: 1.69 µM

Question: With `CCS(=O)(=O)c1ccc(OC)c(Nc2ncc(-c3cccc(OC)c3)o2)c1` as the compound, how does the GI50 read?
Answer: 9.33 µM

Question: And the TGI?
Answer: 24.3 µM

Question: Which results are given for `CCCCN=C(N)c1ccc(OCCSCCOc2ccc(C(N)=NCCCC)cc2)cc1`?
Answer: GI50: 3.13 µM; TGI: 53.7 µM

Question: How did the TGI turn out when `COC(=O)c1cccc2cccc(C(=O)Nc3ccc(C)cc3C)c12` was run?
Answer: > 100 µM

Question: Which GI50 does the source give for `CC(C)c1ccc(C(=O)Nc2sc3c(c2C(N)=O)CCC(=O)C3)cc1` here?
Answer: 0.413 µM

Question: What about the TGI of the same compound?
Answer: 11 µM

Question: For `Cc1ccccc1N(CCC#N)C1=NN(C(=O)CC(=O)Nc2ccccc2)C(c2ccccc2)C1` (configuration not stated), which TGI is on record?
Answer: > 100 µM

Question: For `CC1(n2nc(-c3ccccc3)n(-c3ccccc3)c2=O)CSC1`, which TGI is on record?
Answer: > 100 µM

Tested on: HCT-15 colon
Assay: NCI-60 cell line screen, 48 h

Question: Which results are given for `CC(=O)OC1CC(O)C23COC(O)C1(C)C2CC(O)C1(C)C3C(=O)C(O)C2(C)C(c3ccoc3)CC3OC321` (configuration not stated)?
Answer: GI50: 1.26 µM; TGI: > 100 µM

Question: With `Cn1cc(C(=O)c2ccccc2)ccc1=O` as the compound, how does the TGI read?
Answer: > 100 µM

Question: Which TGI does the source give for `COc1ccc(C(C)c2cc3c(cc2OC)OCO3)cc1` (configuration not stated) here?
Answer: 13.5 µM

Question: How did the TGI turn out when `O=C(CP(=O)(c1ccccc1)c1ccccc1)c1cccc(C(=O)CP(=O)(c2ccccc2)c2ccccc2)c1` was run?
Answer: > 100 µM

Question: `CCc1[nH]c(=O)nc(N)c1-c1ccc(N2CCCCC2)c([N+](=O)[O-])c1` was tested. Which TGI did it give?
Answer: > 100 µM

Question: Which TGI does the source give for `COC(=O)C(=O)C(C(=O)C(=O)Nc1ccccc1C(N)=O)c1nc2ccc(Cl)cc2[nH]c1=O` (configuration not stated) here?
Answer: > 100 µM

Question: `CCC#CC[C@H]1C/C=C2/C(=O)C=C[C@@H]2C/C=C\CCCC(=O)O1` was tested. Which GI50 did it give?
Answer: 0.67 µM

Question: And the TGI?
Answer: 2.14 µM

Question: Which results are given for `COc1cc(OC)c(/C=C/C(=O)c2c(OC)cccc2OC)c(OC)c1`?
Answer: GI50: 0.482 µM; TGI: > 100 µM

Question: How did the GI50 turn out when `COc1cc[nH]c1/C=C1\C(=O)Nc2ccccc21` was run?
Answer: 4.85 µM

Question: And the TGI?
Answer: > 25 µM

Question: What does the source list for `CC(=O)OC[C@]12CC[C@H]3[C@@H](C[C@H]4O[C@]45[C@@H](O)C=CC(=O)[C@]35C)[C@@H]1CC[C@@H]2[C@H](C)[C@H]1CC(C)=C(C)C(=O)O1`?
Answer: GI50: 0.294 µM and 0.177 µM; TGI: 0.751 µM and 0.371 µM

Question: For `O=C(Nc1ccc(Cl)cc1)c1cc(-c2ccc(F)cc2)c2sc(=O)[nH]c2n1`, which GI50 is on record?
Answer: 1.73 µM

Question: And the TGI?
Answer: 10.1 µM

Question: For `Cc1cn2c(/C=C3/C(=O)N(C)c4ccccc43)c(C)nc2s1`, which GI50 is on record?
Answer: 5.25 µM

Question: What about the TGI of the same compound?
Answer: > 100 µM

Question: How did the TGI turn out when `CCOC(=O)NC(=O)c1cn(CCOCCOC(=O)NCCCCCCNC(=O)OCCOCCn2cc(C(=O)NC(=O)OCC)c(=O)[nH]c2=O)c(=O)[nH]c1=O` was run?
Answer: > 100 µM

Question: What does the source list for `Cc1ccc(C(=NN=C(N)N)c2ccc(C)cc2)cc1`?
Answer: GI50: 0.773 µM; TGI: 8.86 µM

Question: What does the source list for `CCS(=O)(=O)c1ccc(OC)c(Nc2ncc(-c3cccc(OC)c3)o2)c1`?
Answer: GI50: 10.6 µM; TGI: > 25 µM

Question: `CCCCN=C(N)c1ccc(OCCSCCOc2ccc(C(N)=NCCCC)cc2)cc1` was tested. Which GI50 did it give?
Answer: > 100 µM

Question: And the TGI?
Answer: > 100 µM

Question: `COC(=O)c1cccc2cccc(C(=O)Nc3ccc(C)cc3C)c12` was tested. Which TGI did it give?
Answer: > 100 µM

Question: For `CC(C)c1ccc(C(=O)Nc2sc3c(c2C(N)=O)CCC(=O)C3)cc1`, which GI50 is on record?
Answer: 0.387 µM

Question: What about the TGI of the same compound?
Answer: 2.12 µM

Question: Which TGI does the source give for `Cc1ccccc1N(CCC#N)C1=NN(C(=O)CC(=O)Nc2ccccc2)C(c2ccccc2)C1` (configuration not stated) here?
Answer: > 100 µM

Question: With `CC1(n2nc(-c3ccccc3)n(-c3ccccc3)c2=O)CSC1` as the compound, how does the TGI read?
Answer: > 100 µM

Tested on: RXF 393 renal
Assay: NCI-60 cell line screen, 48 h

Question: How did the GI50 turn out when `CC(=O)OC1CC(O)C23COC(O)C1(C)C2CC(O)C1(C)C3C(=O)C(O)C2(C)C(c3ccoc3)CC3OC321` (configuration not stated) was run?
Answer: > 100 µM

Question: And the TGI?
Answer: > 100 µM

Question: Which TGI does the source give for `Cn1cc(C(=O)c2ccccc2)ccc1=O` here?
Answer: > 100 µM

Question: For `COc1ccc(C(C)c2cc3c(cc2OC)OCO3)cc1` (configuration not stated), which TGI is on record?
Answer: > 100 µM

Question: For `O=C(CP(=O)(c1ccccc1)c1ccccc1)c1cccc(C(=O)CP(=O)(c2ccccc2)c2ccccc2)c1`, which TGI is on record?
Answer: 52.7 µM

Question: `CCc1[nH]c(=O)nc(N)c1-c1ccc(N2CCCCC2)c([N+](=O)[O-])c1` was tested. Which TGI did it give?
Answer: > 100 µM

Question: With `COC(=O)C(=O)C(C(=O)C(=O)Nc1ccccc1C(N)=O)c1nc2ccc(Cl)cc2[nH]c1=O` (configuration not stated) as the compound, how does the TGI read?
Answer: > 100 µM

Question: With `CCC#CC[C@H]1C/C=C2/C(=O)C=C[C@@H]2C/C=C\CCCC(=O)O1` as the compound, how does the GI50 read?
Answer: 0.945 µM

Question: And the TGI?
Answer: 1.96 µM

Question: For `COc1cc(OC)c(/C=C/C(=O)c2c(OC)cccc2OC)c(OC)c1`, which GI50 is on record?
Answer: 0.561 µM

Question: What about the TGI of the same compound?
Answer: 2.17 µM

Question: Which GI50 does the source give for `COc1cc[nH]c1/C=C1\C(=O)Nc2ccccc21` here?
Answer: 5.33 µM

Question: What about the TGI of the same compound?
Answer: > 25 µM

Question: With `CC(=O)OC[C@]12CC[C@H]3[C@@H](C[C@H]4O[C@]45[C@@H](O)C=CC(=O)[C@]35C)[C@@H]1CC[C@@H]2[C@H](C)[C@H]1CC(C)=C(C)C(=O)O1` as the compound, how does the GI50 read?
Answer: 0.247 µM and 0.388 µM

Question: What about the TGI of the same compound?
Answer: 0.791 µM and 1.13 µM

Question: Which results are given for `O=C(Nc1ccc(Cl)cc1)c1cc(-c2ccc(F)cc2)c2sc(=O)[nH]c2n1`?
Answer: GI50: 1.7 µM; TGI: 3.99 µM

Question: With `Cc1cn2c(/C=C3/C(=O)N(C)c4ccccc43)c(C)nc2s1` as the compound, how does the GI50 read?
Answer: 53.8 µM

Question: And the TGI?
Answer: > 100 µM

Question: How did the TGI turn out when `CCOC(=O)NC(=O)c1cn(CCOCCOC(=O)NCCCCCCNC(=O)OCCOCCn2cc(C(=O)NC(=O)OCC)c(=O)[nH]c2=O)c(=O)[nH]c1=O` was run?
Answer: > 100 µM

Question: Which GI50 does the source give for `Cc1ccc(C(=NN=C(N)N)c2ccc(C)cc2)cc1` here?
Answer: 0.509 µM

Question: And the TGI?
Answer: 1.73 µM

Question: Which results are given for `CCS(=O)(=O)c1ccc(OC)c(Nc2ncc(-c3cccc(OC)c3)o2)c1`?
Answer: GI50: 5.83 µM; TGI: 19.7 µM

Question: With `CCCCN=C(N)c1ccc(OCCSCCOc2ccc(C(N)=NCCCC)cc2)cc1` as the compound, how does the GI50 read?
Answer: 43.2 µM

Question: And the TGI?
Answer: > 100 µM

Question: For `COC(=O)c1cccc2cccc(C(=O)Nc3ccc(C)cc3C)c12`, which TGI is on record?
Answer: > 100 µM

Question: For `CC(C)c1ccc(C(=O)Nc2sc3c(c2C(N)=O)CCC(=O)C3)cc1`, which GI50 is on record?
Answer: 0.354 µM

Question: What about the TGI of the same compound?
Answer: 1.49 µM

Question: For `Cc1ccccc1N(CCC#N)C1=NN(C(=O)CC(=O)Nc2ccccc2)C(c2ccccc2)C1` (configuration not stated), which TGI is on record?
Answer: > 100 µM
